± gives the expanded uncertainty stated by the source.
experiment: molar enthalpy of vaporization or sublimation; conditions: 298.15 K; Crystal; Calvet

SMILES	molar enthalpy [kcal/mol]
Oc1ccccc1I [2-iodophenol]	18.2 ± 0.669
Oc1cccc(I)c1 [m-iodophenol]	21.1 ± 0.765
Oc1ccc(I)cc1 [4-iodophenol]	21.2 ± 0.717
